According to patent publication US8809358B2, “Use of IκB-kinase inhibitors in pain therapy” (Sanofi-Aventis Deutschland GmbH, priority 2002, dated 2014):

What was measured:
[1] = test system: Zymosan-induced paw inflammation; test: Zymosan-induced paw inflammation in the rat: paw withdrawal threshold during mechanical stimulation (von Frey test); format: in vivo; details: for Change in the paw withdrawal threshold (%): 30 mg/kg i.p. 15 min before, 2.5 and 5.5 h after Zymosan
Protocol: (§1) • Zymosan-induced paw inflammation in the rat; • Parameter: paw withdrawal time or paw withdrawal threshold during thermal or mechanical stimulation of the hind paw. 2nd Model: • Kaolin/carrageenan-induced knee joint inflammation in the rat; • Parameter: reaction of spinal neurons during pressure stimulation of the knee. Model 1
(§2) Experimental implementation: in short-term anesthesia using isoflurane, 1 mg of Zymosan (as a suspension in 100 μl of PBS (phosphate-buffered salt solution)) was injected subcutaneously into the middle of the plantar side of one of the experimental animal's hind paws. After that, two different behavioral tests were used to quantitatively determine the development of a hyperalgesia.
b) Determining the Paw Withdrawal Threshold During Mechanical Stimulation (von Frey Test)
The experimental animal was placed in a transparent plastic chamber whose floor consisted of wire-gauze. Punctuate pressure of defined strength was produced using calibrated nylon fibers, what are termed von Frey hairs. The weakest pressure stimulation during which the animal withdrew its paw determines the mechanical pain threshold.
(§3) About half an hour before, and at various times after, the Zymosan injection, the thermal and mechanical pain thresholds were determined on the right hind paw and on the left hind paw (see Tables 1, 2). The decrease in the ipsilateral pain threshold, expressed in % of the contralateral pain threshold, was then calculated (see Tables 1, 2). The degree of hyperalgesia is directly proportional to the magnitude of this decrease.
(§4) In a control group, the Zymosan injection induced pronounced mechanical and thermal hyperalgesia (see control data in Tabs. 1 and 2).

[2] = test system: Kaolin/carrageenan-induced knee joint inflammation; test: Kaolin/carrageenan-induced knee joint inflammation in the rat: reaction of spinal neurons during pressure stimulation of the knee; format: in vivo
Excerpt: as §1
Experimental implementation: In rats which were under sodium thiopental anesthesia, the spinal canal was opened and spinal medullary neurons which processed the “pain impulses” from the knee-joint were identified. Following identification, a long-term recording, in which the activity of the nerve cell was recorded before and during the development of an acute inflammation in the knee-joint, was carried out. For this, the responses to non-noxious and noxious stimulation at the knee-joint were measured in a control period before inducing the inflammation and for several hours after inducing the inflammation.
The acute inflammation was induced by the intraarticular injection of a suspension (about 150 μl) of kaolin and carrageenan. In controlled experiments, only the vehicle was applied to the spinal medullary surface in order to represent the development of the hyperexcitability under control conditions. As a rule, this development of hyperexcitability took place within 2 to 4 hours and was expressed in a marked increase in the responses to non-noxious and noxious stimulation of the knee-joint (Tab. 3). […] The responses of the cell to non-noxious and noxious stimulation were then subsequently monitored as in the control experiments.

[3] = test system: Zymosan-induced paw inflammation; test: Zymosan-induced paw inflammation in the mouse: spontaneous running performance in a running wheel; format: in vivo, C57/B6 mice; details: for Statistical difference as compared with the vehicle: running wheel AUC, seven days
Protocol: 4th Model: • Zymosan-induced paw inflammation in the mouse; • Parameter: spontaneous running performance in a running wheel. In the cage in which it is kept, the experimental animal has access to a running wheel, the revolutions of which are recorded electronically. During the night hours, the C57/B6 mice use the running wheel voluntarily and, after a one-week phase of acclimatization, cover on average 4 100 meters/night. After zymosan has been injected, the distance run each night is reduced. This reduction in running performance is a valid parameter for a restriction in function which is due to inflammation pain. Experimental implementation: After an acclimatization phase of one week, the distance run/24 hours was measured in order to determine the base line. 25 μl of a suspension containing 50 mg of zymosan/ml were then injected into the right hind paw of the experimental animal during short-term anesthesia using isoflurane. The distance run/24 hours was then determined during the following seven days. In the analysis, the area under the curve for the values for the distance run was determined (AUC, tab. 7): the lower the AUC, the lower was the running performance during the week following injection of the zymosan. […] The substance was administered for the first time on day 1 after injection of the zymosan.

[4] = test system: Zymosan-induced paw inflammation; test: Zymosan-induced paw inflammation in the rat: paw withdrawal time during thermal stimulation (Hargreaves test); format: in vivo; details: for Change in the paw withdrawal time (%): 30 mg/kg i.p. 15 min before, 2.5 and 5.5 h after Zymosan
Protocol: as §1, §2
a) Determining the Paw Withdrawal Time During Thermal Stimulation (Hargreaves Test).
The experimental animal was placed in a transparent plastic chamber having a glass floor. As soon as the experimental animal was no longer moving, following the reconnaissance phase (about 5 min), an infrared light source was positioned directly below the hind paw to be stimulated and switched on. The lamp emitted focused infrared light of increasing intensity, such that the skin temperature of the hind paw increased almost linearly. As soon as the animal withdrew the paw, the lamp switched itself off. The temperature of the paw at the time it is withdrawn has just become unpleasant for the animal; this is referred to as the thermal pain threshold.
as §3, §4

CNc1nccc(-c2cc3cc(C(=O)N[C@@H](CN(c4ccccc4)c4ccccc4)c4n[nH]c(=O)o4)ccc3[nH]2)n1 [Compound 13, N—[(S)-2-diphenylamino-1-(5-oxo-4,5-dihydro[1,3,4]oxadiazol-2-yl)ethyl]-2-(2-methylaminopyrimidin-4-yl)-1H-indole-5-carboxamide]
onset of the effect on mechanical hyperalgesia after Zymosan injection ([1]; 30 mg/kg i.p.): 1 h
Change in the paw withdrawal threshold (%) ([1]; 2 h after Zymosan injection): −36.0%
Change in the paw withdrawal threshold (%) ([1]; 24 h after Zymosan injection): −9.7%
Change in the paw withdrawal threshold (%) ([1]; Baseline −0.5 h): 0.0%
mechanical hyperalgesia ([1]; 30 mg/kg i.p. three times): significantly reduced
persistence of the effect on mechanical hyperalgesia after the last administration ([1]; 30 mg/kg i.p. three times): ≥ 18 h
activity in the test model ([1]; mechanical hyperalgesia): very strong
Neuronal responses before and during knee-joint inflammation (imp/15 s), mean value ([2]; Non-noxious stimulation at the knee-joint, about 30 μl of 10 μM solution on spinal medulla, Baseline): 0.92 imp/15 s
Neuronal responses before and during knee-joint inflammation (imp/15 s), mean value ([2]; Noxious stimulation at the knee-joint, about 30 μl of 10 μM solution on spinal medulla, 120-180 min after K/C injection): 8.5 imp/15 s
Neuronal responses before and during knee-joint inflammation (imp/15 s), mean value ([2]; Noxious stimulation at the knee-joint, about 30 μl of 10 μM solution on spinal medulla, Baseline): 0.8 imp/15 s
development of spinal hyperexcitability compared with the controls ([2]; rat, about 30 μl of 10 μM solution on spinal medulla): almost completely suppressed
effect on the responses to noxious knee-joint stimulation compared with indomethacin ([2]; rat, comparison with published data from an earlier study): more strongly expressed
distance run as compared with the vehicle group ([3]; mouse, 7 days, both the higher doses): dose-dependent increase
Statistical difference as compared with the vehicle ([3]; 2.8 mg/kg twice daily): no
Statistical difference as compared with the vehicle ([3]; 25 mg/kg twice daily): yes
Statistical difference as compared with the vehicle ([3]; 75 mg/kg twice daily): yes
Change in the paw withdrawal time (%) ([4]; 4 h after Zymosan injection): −16.0%
Change in the paw withdrawal time (%) ([4]; 5 h after Zymosan injection): −9.7%
Change in the paw withdrawal time (%) ([4]; 6 h after Zymosan injection): 5.0%
Change in the paw withdrawal time (%) ([4]; 7 h after Zymosan injection): 3.4%
Change in the paw withdrawal time (%) ([4]; 24 h after Zymosan injection): −3.8%
Change in the paw withdrawal time (%) ([4]; Baseline −0.5 h): 0.0%
persistence of the effect on thermal hyperalgesia after the last administration ([4]; 30 mg/kg i.p. three times): ≥ 18 h
side difference in the paw withdrawal time ([4]; 30 mg/kg i.p., after the third administration of the substance): no longer possible to observe any side difference at all
thermal hyperalgesia compared with the control group ([4]; 30 mg/kg i.p., from two hours after Zymosan injection onward): less pronounced
reduction of thermal hyperalgesia compared with the NSAID diclofenac ([4]; comparative data from a study carried out previously): considerably more powerfully
activity in the test model ([4]; thermal hyperalgesia): very strong
